Test [1] has as its target Tyrosine-protein kinase Lck (Homo sapiens, UniProt P06239). As to the kind of experiment: Selectivity interaction (Upstate Kinase Profiler service (Millipore)) EUB0000056c LCK. To be noted: at 1 µM.
In test [2] the target is Ribosomal protein S6 kinase alpha-1 (Homo sapiens, UniProt Q15418). As to the kind of experiment: Selectivity interaction (ProQinase) EUB0000171b RPS6KA1.
In test [3] the target is Platelet-derived growth factor receptor beta (Homo sapiens, UniProt P09619). As to the kind of experiment: Selectivity interaction (Ambit KINOMEscan and KiNATiv profiling in Jurkat cells) EUB0000090b PDGFRB. The class given is cell-based. Conditions: at 1 µM.
The target of test [4] is Serine/threonine-protein kinase 38-like (Homo sapiens) (UniProt Q9Y2H1). As to the kind of experiment: Selectivity interaction (KinomeScan (DiscoverX)) EUB0000695a STK38L. To be noted: at 100 nM.
The target in test [5] is T1, Prostaglandin G/H synthase 2 (Homo sapiens) (UniProt P35354).
T1 sequence (whole entry): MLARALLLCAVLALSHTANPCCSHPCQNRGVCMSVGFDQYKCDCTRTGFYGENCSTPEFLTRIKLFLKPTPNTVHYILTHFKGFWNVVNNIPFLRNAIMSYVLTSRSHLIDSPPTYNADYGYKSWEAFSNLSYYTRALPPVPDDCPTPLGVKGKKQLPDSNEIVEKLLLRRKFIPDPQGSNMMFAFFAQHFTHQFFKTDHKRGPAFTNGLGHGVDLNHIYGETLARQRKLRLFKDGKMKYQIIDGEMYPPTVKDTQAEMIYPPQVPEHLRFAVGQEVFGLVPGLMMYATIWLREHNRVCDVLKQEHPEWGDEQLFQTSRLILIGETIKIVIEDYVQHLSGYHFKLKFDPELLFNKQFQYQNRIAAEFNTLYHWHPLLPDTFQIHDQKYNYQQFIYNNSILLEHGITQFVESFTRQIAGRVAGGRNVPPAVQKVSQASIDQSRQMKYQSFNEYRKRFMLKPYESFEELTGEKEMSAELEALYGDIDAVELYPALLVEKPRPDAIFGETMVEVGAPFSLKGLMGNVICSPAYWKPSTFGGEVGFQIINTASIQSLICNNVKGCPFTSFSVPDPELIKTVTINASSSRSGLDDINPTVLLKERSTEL
In words: Selectivity interaction (Panel of non-epigenetic targets (kinases, GPCRs, ion channels, and transporters, Eurofins) ) EUB0000271b PTGS2. To be noted: at 1 µM.

Test [6] has as its target T2, Hormonally up-regulated neu tumor-associated kinase (Homo sapiens) (UniProt P57058).
T2 sequence (whole entry): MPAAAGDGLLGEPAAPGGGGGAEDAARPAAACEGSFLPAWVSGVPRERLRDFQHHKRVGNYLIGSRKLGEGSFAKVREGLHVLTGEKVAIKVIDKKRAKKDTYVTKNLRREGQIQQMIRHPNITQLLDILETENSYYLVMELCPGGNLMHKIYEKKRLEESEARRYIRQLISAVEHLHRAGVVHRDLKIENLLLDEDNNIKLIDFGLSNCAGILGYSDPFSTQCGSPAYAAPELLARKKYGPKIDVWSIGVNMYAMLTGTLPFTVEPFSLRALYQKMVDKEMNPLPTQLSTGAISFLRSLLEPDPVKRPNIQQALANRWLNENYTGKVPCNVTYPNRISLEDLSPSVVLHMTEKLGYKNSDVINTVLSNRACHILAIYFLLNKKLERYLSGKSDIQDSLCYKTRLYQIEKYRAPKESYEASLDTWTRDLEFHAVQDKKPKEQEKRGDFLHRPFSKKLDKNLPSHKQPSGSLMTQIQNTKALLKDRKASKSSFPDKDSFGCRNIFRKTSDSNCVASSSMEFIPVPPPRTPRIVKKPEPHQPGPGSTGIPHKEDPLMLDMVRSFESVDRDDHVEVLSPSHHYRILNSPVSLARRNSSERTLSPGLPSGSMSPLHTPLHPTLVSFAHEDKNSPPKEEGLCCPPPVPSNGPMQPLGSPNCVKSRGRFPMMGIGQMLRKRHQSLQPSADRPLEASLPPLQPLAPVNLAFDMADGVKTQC
As to the kind of experiment: Selectivity interaction (KinomeScan (DiscoverX)) EUB0000666a HUNK. To be noted: at 10 µM.

Test [7] addresses Histone-lysine N-methyltransferase 2A (Homo sapiens) (UniProt Q03164). As to the kind of experiment: Selectivity interaction (Methyltransferase screen (radiometric assays, panel of 8 PRMTs, 21 protein lysine methyltransferases, 3 DNA methyltransferases, and one RNA methyltransferase)) EUB0000272b MLL.
The target of test [8] is T3, Uncharacterized serine/threonine-protein kinase SBK3 (Homo sapiens) (UniProt P0C264).
T3 sequence (whole entry): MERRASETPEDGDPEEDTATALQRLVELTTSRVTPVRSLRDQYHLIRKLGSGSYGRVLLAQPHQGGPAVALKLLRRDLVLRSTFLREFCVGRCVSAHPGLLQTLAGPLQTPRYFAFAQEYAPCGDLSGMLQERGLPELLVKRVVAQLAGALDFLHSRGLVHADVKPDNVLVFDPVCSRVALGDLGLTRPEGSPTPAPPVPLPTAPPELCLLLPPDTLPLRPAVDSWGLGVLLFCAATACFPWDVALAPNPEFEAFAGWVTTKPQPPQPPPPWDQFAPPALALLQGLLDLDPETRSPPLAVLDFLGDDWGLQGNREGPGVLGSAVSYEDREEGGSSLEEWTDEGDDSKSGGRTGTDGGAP
In words: Selectivity interaction (KinomeScan (DiscoverX)) EUB0000229b SBK3. To be noted: at 10 µM.

Test [9] deals with Serine/threonine-protein kinase PAK 6 (Homo sapiens) (UniProt Q9NQU5). In words: Selectivity interaction (KinomeScan (DiscoverX)) EUB0000618a PAK6. Conditions: at 10 µM.

Chain of Histone-lysine N-methyltransferase 2A (Homo sapiens) (Q03164 1-2718 limits assumed): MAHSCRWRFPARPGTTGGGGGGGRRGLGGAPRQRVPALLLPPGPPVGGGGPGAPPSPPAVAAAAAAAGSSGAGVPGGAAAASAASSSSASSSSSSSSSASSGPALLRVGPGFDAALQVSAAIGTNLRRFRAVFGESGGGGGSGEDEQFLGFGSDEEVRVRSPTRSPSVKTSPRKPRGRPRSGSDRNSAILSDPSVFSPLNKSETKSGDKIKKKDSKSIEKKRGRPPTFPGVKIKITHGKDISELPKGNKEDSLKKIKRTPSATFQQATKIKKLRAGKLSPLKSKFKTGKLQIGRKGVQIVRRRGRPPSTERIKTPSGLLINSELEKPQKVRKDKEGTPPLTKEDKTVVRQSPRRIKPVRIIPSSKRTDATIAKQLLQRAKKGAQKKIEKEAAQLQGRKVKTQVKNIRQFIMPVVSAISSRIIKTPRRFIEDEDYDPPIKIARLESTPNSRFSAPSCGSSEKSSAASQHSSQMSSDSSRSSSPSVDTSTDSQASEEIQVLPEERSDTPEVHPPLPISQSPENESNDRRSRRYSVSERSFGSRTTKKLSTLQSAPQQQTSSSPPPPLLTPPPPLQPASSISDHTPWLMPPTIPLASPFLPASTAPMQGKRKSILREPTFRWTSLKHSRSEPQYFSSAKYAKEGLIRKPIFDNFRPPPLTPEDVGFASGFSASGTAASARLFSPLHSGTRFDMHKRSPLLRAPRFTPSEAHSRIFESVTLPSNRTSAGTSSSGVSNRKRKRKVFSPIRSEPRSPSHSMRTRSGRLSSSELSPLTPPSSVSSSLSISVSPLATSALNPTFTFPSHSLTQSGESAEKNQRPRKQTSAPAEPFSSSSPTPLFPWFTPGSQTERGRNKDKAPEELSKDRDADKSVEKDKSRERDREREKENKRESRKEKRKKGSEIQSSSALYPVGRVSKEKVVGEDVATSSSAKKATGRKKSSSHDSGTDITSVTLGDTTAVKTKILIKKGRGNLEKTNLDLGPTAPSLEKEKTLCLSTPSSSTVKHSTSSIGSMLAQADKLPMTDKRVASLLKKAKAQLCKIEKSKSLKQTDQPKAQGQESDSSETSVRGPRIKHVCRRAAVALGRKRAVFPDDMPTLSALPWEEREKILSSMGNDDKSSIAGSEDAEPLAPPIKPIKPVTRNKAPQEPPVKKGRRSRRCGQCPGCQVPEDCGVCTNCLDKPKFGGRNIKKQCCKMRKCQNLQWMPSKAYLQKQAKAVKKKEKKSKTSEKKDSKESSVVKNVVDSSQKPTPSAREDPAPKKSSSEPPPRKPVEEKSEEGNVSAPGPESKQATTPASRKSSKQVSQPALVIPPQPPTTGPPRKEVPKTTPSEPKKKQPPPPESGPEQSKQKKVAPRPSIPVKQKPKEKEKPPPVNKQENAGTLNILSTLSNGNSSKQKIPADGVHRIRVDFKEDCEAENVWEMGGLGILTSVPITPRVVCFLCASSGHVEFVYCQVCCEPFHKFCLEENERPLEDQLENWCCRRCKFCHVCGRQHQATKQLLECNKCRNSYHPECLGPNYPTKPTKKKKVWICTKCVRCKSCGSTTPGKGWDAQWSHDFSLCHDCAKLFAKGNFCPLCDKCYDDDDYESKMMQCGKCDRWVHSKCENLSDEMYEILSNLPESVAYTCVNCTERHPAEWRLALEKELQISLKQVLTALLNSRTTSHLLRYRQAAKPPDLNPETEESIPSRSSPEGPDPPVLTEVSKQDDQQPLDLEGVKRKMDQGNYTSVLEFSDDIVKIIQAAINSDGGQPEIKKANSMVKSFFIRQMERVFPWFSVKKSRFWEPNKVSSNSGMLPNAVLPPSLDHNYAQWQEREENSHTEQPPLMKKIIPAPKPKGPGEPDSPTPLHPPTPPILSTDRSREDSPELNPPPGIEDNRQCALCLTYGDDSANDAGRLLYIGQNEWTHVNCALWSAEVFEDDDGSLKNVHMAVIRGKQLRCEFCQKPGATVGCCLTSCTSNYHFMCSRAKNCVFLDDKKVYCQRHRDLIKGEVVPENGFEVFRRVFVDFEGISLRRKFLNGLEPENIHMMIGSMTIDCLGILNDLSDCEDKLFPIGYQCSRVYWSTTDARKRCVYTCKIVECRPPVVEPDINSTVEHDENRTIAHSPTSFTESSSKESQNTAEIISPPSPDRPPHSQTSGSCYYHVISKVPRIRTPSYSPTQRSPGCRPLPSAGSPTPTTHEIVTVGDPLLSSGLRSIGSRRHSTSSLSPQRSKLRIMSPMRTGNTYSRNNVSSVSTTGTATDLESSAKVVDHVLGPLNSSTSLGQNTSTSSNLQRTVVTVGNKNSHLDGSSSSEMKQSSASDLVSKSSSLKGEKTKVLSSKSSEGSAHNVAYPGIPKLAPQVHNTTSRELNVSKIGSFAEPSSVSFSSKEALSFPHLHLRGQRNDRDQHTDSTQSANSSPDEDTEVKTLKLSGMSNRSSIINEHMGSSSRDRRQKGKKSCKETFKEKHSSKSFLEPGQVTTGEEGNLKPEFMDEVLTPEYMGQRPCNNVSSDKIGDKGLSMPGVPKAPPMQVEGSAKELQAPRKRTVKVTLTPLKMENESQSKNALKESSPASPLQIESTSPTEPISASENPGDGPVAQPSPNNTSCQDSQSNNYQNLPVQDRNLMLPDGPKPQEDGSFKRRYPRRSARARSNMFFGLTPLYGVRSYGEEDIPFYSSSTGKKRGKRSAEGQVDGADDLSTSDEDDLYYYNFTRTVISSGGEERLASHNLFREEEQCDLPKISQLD
Chain of Histone-lysine N-methyltransferase 2A (Homo sapiens) (Q03164 2719-3969 limits assumed): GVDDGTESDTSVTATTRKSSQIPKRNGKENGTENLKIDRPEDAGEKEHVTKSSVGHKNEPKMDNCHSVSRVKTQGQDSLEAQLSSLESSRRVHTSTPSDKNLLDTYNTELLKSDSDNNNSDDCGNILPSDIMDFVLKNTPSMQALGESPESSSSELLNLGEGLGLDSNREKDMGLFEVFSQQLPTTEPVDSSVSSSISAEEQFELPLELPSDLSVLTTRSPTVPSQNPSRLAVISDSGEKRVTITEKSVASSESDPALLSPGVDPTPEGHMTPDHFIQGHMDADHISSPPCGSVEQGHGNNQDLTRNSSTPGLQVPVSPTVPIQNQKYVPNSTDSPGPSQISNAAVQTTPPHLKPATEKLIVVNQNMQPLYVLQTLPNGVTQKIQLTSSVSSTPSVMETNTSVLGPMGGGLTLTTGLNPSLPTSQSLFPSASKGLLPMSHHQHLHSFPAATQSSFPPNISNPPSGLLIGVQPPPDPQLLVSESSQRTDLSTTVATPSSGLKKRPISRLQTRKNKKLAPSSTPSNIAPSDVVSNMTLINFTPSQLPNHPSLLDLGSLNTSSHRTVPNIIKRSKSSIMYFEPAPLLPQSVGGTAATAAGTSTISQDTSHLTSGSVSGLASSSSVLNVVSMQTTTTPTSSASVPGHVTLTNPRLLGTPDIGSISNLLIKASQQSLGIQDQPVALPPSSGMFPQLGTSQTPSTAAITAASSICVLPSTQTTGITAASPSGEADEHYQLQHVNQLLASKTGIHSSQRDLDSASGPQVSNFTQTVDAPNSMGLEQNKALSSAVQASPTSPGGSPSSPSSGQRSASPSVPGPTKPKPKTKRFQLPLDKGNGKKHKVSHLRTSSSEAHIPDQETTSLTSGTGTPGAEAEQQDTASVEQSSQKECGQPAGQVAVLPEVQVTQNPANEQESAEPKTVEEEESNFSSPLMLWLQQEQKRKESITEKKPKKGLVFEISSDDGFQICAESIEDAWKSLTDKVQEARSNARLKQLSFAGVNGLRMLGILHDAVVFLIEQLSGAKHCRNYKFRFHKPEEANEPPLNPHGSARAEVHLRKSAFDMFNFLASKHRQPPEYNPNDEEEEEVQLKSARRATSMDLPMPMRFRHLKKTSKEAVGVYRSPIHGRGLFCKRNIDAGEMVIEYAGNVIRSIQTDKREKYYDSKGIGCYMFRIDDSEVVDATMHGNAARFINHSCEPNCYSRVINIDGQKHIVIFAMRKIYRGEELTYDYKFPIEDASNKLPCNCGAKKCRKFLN
Chain of Ribosomal protein S6 kinase alpha-1 (Q15418 whole entry): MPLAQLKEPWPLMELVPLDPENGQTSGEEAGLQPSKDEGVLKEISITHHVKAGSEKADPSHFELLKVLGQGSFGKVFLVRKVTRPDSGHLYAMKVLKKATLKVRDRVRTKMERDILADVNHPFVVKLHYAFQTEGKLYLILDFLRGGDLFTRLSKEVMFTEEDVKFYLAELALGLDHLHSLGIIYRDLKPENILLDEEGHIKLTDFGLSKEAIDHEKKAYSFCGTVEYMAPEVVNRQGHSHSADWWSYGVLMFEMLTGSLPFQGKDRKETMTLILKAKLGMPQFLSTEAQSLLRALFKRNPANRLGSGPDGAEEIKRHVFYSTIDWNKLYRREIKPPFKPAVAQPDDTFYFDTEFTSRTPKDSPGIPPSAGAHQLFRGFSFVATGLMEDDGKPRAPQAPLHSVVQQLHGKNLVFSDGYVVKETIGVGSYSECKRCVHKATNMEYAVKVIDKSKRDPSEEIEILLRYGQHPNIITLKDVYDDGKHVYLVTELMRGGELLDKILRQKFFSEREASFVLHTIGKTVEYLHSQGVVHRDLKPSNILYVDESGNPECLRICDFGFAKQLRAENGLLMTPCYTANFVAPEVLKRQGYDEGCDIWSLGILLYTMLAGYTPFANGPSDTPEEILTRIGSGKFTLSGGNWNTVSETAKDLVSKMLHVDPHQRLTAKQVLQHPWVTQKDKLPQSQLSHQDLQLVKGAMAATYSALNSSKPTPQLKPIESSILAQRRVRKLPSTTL

For the molecule `Cc1ccc(-c2ccc3c(ccc4sc5c(c43)NC[C@@H](C)NC5=O)n2)cn1`, in test [1], the % of inhibition was -3%.

As to `C=CC(=O)Nc1cccc(C(=O)Nc2ccc(Nc3cc(-c4[nH]c(SC)nc4C)ccn3)cc2)c1`, the values for the % of control in test [2] (at 1 µM) and in test [2] (at 5 µM) were 82% and 64%, respectively.

In test [3], `CN(C)C/C=C/C(=O)Nc1ccc(C(=O)N2CCCC(Nc3ncc(Cl)c(-c4c[nH]c5ccccc45)n3)C2)cc1` (stereo unspecified) had a % of control of 76%.

For `Cc1cc(F)c(C(=O)Nc2cccc(-c3nncn3C(C)C)n2)cc1-n1cnc(C2CC2)c1`, in test [4], the % of control is 100%.

Regarding `Cc1cc(C)cc([C@@H]2c3cc(C)ccc3NC(=O)CN2C(=O)c2ccc(Br)s2)c1`, the % of inhibition in test [5] is 8%.

Molecule `O=C(NOC[C@H](O)CO)c1ccc(F)c(F)c1Nc1ccc(I)cc1F` came in with a % of control in test [6] of 100%.

Regarding `Cc1cc(C)cc([C@H]2c3cc(C)ccc3NC(=O)CN2C(=O)c2ccc(Br)s2)c1`, the % of activity in test [7] (at 1 µM) was determined as 99.3%; in [7] (at 10 µM), 100%.

With `COc1cc(N(C)c2ccnc3ccc(C(F)(F)F)cc23)cc(OC)c1OC`, in [8], the % binding amounted to 100%.

Turning to `O[C@H]1CC[C@H](Nc2ncc3nc(Nc4c(F)cc(F)cc4F)n([C@H]4CCOC4)c3n2)CC1`, the % of control in test [9] stood at 100%.

Values taken from ChEMBL document CHEMBL5465560, “Selectivity Literature for EUbOPEN Chemogenomic Library” (2024).
